Columns and labels:
[1] = Oka et al. (2000) FEBS Lett.; cited from earlier work
[2] = system: NF-κB; experiment: NF-κB luciferase gene reporter assay (pIG3Luc) in HeLa cells; assay type: cell-based; settings: HeLa cells, FIG. 2A, 2C
Description: The plasmids, pRKF-IKKα and pRKHA-IKKβ have been described previously (Oka, S., Kamata, H., Kamata, K., Yagisawa, H. and Hirata, H. (2000) FEBS Lett., 472, 196-202). pRKF-IKKαEE and pRK-HA-IKKβEE encode constitutively active mutants of IKKα, in which 176 and 180 serine residues in an activation loop are replaced by glutamic acid residues, and IKKβ, in, which 177 and 181 serine residues are replaced by glutamic acid residues, respectively. A reporter plasmid pIG3Luc for NF-κB encodes triple NF-κB binding site sequences (AGCTTCAGAGGGGACTRANSCRIPTIONCCGAGAGG) (SEQ ID NO: 2) followed by the luciferase gene. A control plasmid, pBKRLuc, was obtained from Toyobo (Toyo B-Net Co., Japan). pcDNAF-MEKK1, pRKF-p65, pEFBOSHA-Rac1-DA, and pEFBOSHA-Cdc42-DA, are the expression plasmids for MEKK1, the NF-κB subunit p65, constitutively active Rac1 and Cdc42, respectively.
Luciferase gene reporter assay and Kinase assays of IKK: HeLa cells were transfected with the reporter plasmids described above using Lipofectin (GIBCO BRL). After 24-48 hr, the luciferase activity was determined using the Luciferase Assay System (Promega). The kinase activity of IKKα and IKKβ were analyzed by immune complex kinase assay as described previously (Oka, S., Kamata, H., Kamata, K., Yagisawa, H. and Hirata, H. (2000) FEBS Lett. 472, 196-202). The substrates was using GST-IκBα(1-55) or GST-p65(399-551).
The gene expression induction by NF-κB activation plays the most important role among “life” signals by TNFα. Therefore, the NF-κB reporter gene was introduced into the cells to analyze the effect of cPrG-HCl by luciferase assay.
NF-κB is translocated into the nucleus also by activation with low-molecular-weight G proteins Rac1 and Cdc42 or MEKK1 and induces gene expression. An activated Rac1, Cdc42 or MEKK1 expression plasmid was introduced together with the NF-κB reporter gene into cells and the effect of cPrG-HCl on NF-κB activation was measured by luciferase assay (FIG. 4A and FIG. 4B).

[3] = system: female ICR mice; experiment: Toxicity on intraperitoneal administration to mice; assay type: in vivo; settings: 5 weeks old, 25 to 29 g
[4] = as compared to FCCP
[5] = system: HeLa cells; experiment: Cell viability by trypan blue dye exclusion assay; assay type: cell-based; settings: stimulation by TNFα alone, FIG. 1A
Protocol: (§1) Cell culture: HeLa cells were cultured in Dulbecco's modified Eagle's medium supplemented with 10% fetal bovine serum and 50 μg/ml kanamycin at 37° C. in 5% CO2 in air.
(§2) Assay for apoptotic processes: Cell viability was determined by dye exclusion assay using 0.1% trypan blue. DNA fragmentation was analyzed as described previously (Kawauchi, K. et al. (1997) Biochem. Biophys. Res. Commun. 237, 543-547). In the caspase-3 assay, cells were disrupted by freeze-thaw in an extraction buffer (50 mM Tris-HCl, pH7.4, 1 mM EGTA, 5 mM EDTA, 5 mM MgCl2, 1 mM APMSF, 10 μg/ml pepstatin, 10 μg/ml leupeptin, and 1 mM DTT). Then the suspension was centrifuged at 15,000 rpm for 20 min, and the supernatants obtained were incubated at 37° C. for 60 min in a reaction buffer (50 mM Tris-HCl, pH7.4, 1 mM EDTA, 10 mM EGTA) with 20 μM of the fluorogenic substrate DEVD-AFC (Peptide Institute, Inc., Japan). Cleavage of the substrates was quantified by measuring the fluorescence of 7-amino-4-trifluomethyl coumarin released using a spectrofluorometer (Shimadzu RF5000) with excitation at 380 mn and emission at 460 nm.

[6] = system: HeLa cells; experiment: DNA fragmentation (apoptosis) in HeLa cells; assay type: cell-based; settings: stimulation by TNFα alone, FIG. 1A
Protocol: as §1, §2
HeLa cells were treated with TNFα and cPrG.HCl and the effect of cPrG.HCl on apoptosis was examined by measuring DNA fragmentation and survivability.

Compound: CC(=O)N[C@@H](CS)C(=O)O [N-acetylcysteine]
- effect on apoptosis [1]: inhibits

Compound: CO/C1=C\C(C)=C\[C@@H](C)[C@@H](O)[C@@H](C)C/C(C)=C/C=C/[C@H](OC)[C@@H]([C@@H](C)[C@@H](O)[C@H](C)[C@@]2(O)C[C@@H](O)[C@H](C)[C@@H](C(C)C)O2)OC1=O [bafilomycin, reference compound]
- TNFα-induced NF-κB activation (gene expression induction, luciferase) [2]: not suppressed

Compound: COC1=CC(c2ccc[nH]2)=N/C1=C\c1[nH]c(C)c2c1C(C)CCC2 (stereo not drawn) [cPrG, Cycloprodigiosin]
- LD50 [3]: greater than 10 mg
- ionophore activity [4]: no ionophore activity

Compound: TNFα
- decrease in cell viability [5]: hardly observed
- DNA fragmentation [6]: hardly observed

Source: patent US20040048791A1, “Method for treating neoplastic cells using cycloprodigiosin or salt thereof” (priority 2002, published 2004)
